Measured values: ChEMBL document CHEMBL1201862, “PubChem BioAssay data set” (2004)
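Briefly, cells in 96-well plates were exposed to five compound concentrations for 48 h, and endpoints were estimated by linear interpolation. At the GI50, growth is halved.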 The source made the active and inactive calls. Rule as the data show it: active = GI50 up to about 1.1 µM and inactive = higher.

What was measured:
Test in all cases: DTP human tumour cell line panel, 48 h
[1] = system: LXFL 529
[2] = system: DMS-273
[3] = system: XF498
[4] = system: KM-20L2
[5] = system: RXF 631
[6] = system: M19-MEL
[7] = system: HOP-18
[8] = system: SNB-78
[9] = system: DLD-1

| SMILES | GI50 [1] | GI50 [2] | GI50 [3] | GI50 [4] | GI50 [5] | GI50 [6] | GI50 [7] | GI50 [8] | GI50 [9] |
| --- | --- | --- | --- | --- | --- | --- | --- | --- | --- |
| CC1(C)CCC[C@@]2(C)C1C[C@H](O)[C@@]1(C)O[C@@](C)([C@H](O)CO)CCC21 (stereo partly specified) | 43.2 µM (inactive) | 44.2 µM (inactive) | 38.7 µM (inactive) | 40.5 µM (inactive) | 86.9 µM (inactive) | 40.8 µM (inactive) | 26.1 µM (inactive) | 40.3 µM (inactive) |  |
| Cc1cc(S(=O)(=O)O)c(NC(=O)C(=O)C2C=CCS2(=O)=O)cc1Cl (stereo unspecified) | > 100 µM (inactive) | > 100 µM (inactive) | > 100 µM (inactive) | > 100 µM (inactive) |  | > 100 µM (inactive) | > 100 µM (inactive) | > 100 µM (inactive) | > 100 µM (inactive) |
| O=C1N(c2ccccc2)C2(O)C(=O)c3ccccc3C2(O)N1c1ccccc1 (stereo unspecified) | > 100 µM (inactive) | > 100 µM (inactive) |  | > 100 µM (inactive) |  | > 100 µM (inactive) | > 100 µM (inactive) | > 100 µM (inactive) | > 100 µM (inactive) |
| CS(=O)(=O)OCCCCOS(C)(=O)=O [BUSULFAN] | > 250 µM (inactive) | 191 µM (inactive) |  | > 234 µM (inactive) |  | 226 µM (inactive) | > 200 µM (inactive) | 212 µM (inactive) | > 236 µM (inactive) |
| COC(=O)C1=CNC(C(=O)OC)=NN1 | > 100 µM (inactive) |  | > 100 µM (inactive) | > 100 µM (inactive) | > 100 µM (inactive) | > 100 µM (inactive) | > 100 µM (inactive) |  | > 100 µM (inactive) |
| O=[N+]([O-])c1cc(C2SCc3nc4ccccc4n32)ccc1Cl (stereo unspecified) | 23.1 µM (inactive) | 24.2 µM (inactive) |  |  |  | 22.2 µM (inactive) | 76.7 µM (inactive) | 23.2 µM (inactive) | 26.1 µM (inactive) |
| Cc1cc(NS(=O)(=O)c2ccc(NC(=O)c3cccc4c(Nc5ccc(S(=O)(=O)N=C(N)N)cc5)c5ccccc5nc34)cc2)no1 | > 100 µM (inactive) | > 100 µM (inactive) |  | > 100 µM (inactive) | > 100 µM (inactive) |  |  | > 100 µM (inactive) | > 100 µM (inactive) |
| Nc1ccccc1SC(/C=C/NNC1=NN=C(c2ccccc2)C(c2ccccc2)N1)c1ccccc1 (stereo unspecified) |  | 16.9 µM (inactive) |  | 21 µM (inactive) |  | 11.4 µM (inactive) |  | 18 µM (inactive) | 12.9 µM (inactive) |
| CCCc1c[nH]c(-c2ccc(-c3cc(CCC)c(C=O)[nH]3)s2)c1 | 18.8 µM (inactive) | 14.9 µM (inactive) | 18.7 µM (inactive) |  |  | 7.93 µM (inactive) | 27.7 µM (inactive) | 20.1 µM (inactive) | 15 µM (inactive) |
| Cc1cc(C)cc(-n2c3nc(=O)n(C)c(=O)c-3nc3ccccc32)c1 | 48.4 µM (inactive) | 16.7 µM (inactive) | 36.3 µM (inactive) | 19.4 µM (inactive) | 22.5 µM (inactive) | 6.07 µM (inactive) | > 100 µM (inactive) | 35.6 µM (inactive) |  |
| C/C(=N\NC(=S)N(C)C)c1ncc[nH]1 | 2.98 µM (inactive) |  | 4.73 µM (inactive) | 3.57 µM (inactive) |  | 5.6 µM (inactive) | 5.37 µM (inactive) |  | 2.9 µM (inactive) |
| Cc1ccc(C2=[N+]([O-])c3ccccc3C2=O)cc1 | 8.49 µM (inactive) |  | 12.9 µM (inactive) | 40.4 µM (inactive) | 22.2 µM (inactive) | > 36.1 µM (inactive) | 27.4 µM (inactive) | 31.7 µM (inactive) | 21.9 µM (inactive) |
| O=C1c2ccccc2S[C@@H](O)[C@@H]2CCCN12 | > 100 µM (inactive) | > 100 µM (inactive) | 39.6 µM (inactive) | > 100 µM (inactive) |  | > 100 µM (inactive) | > 100 µM (inactive) | > 100 µM (inactive) | > 100 µM (inactive) |
| CC(=O)CC(=O)Nc1ccccc1C(F)(F)F | > 100 µM (inactive) |  | > 100 µM (inactive) | > 100 µM (inactive) | > 100 µM (inactive) | > 100 µM (inactive) |  | > 100 µM (inactive) | > 100 µM (inactive) |
| CCC1CC2C(=O)N(c3ccccc3)C(=O)C2c2[nH]c3ccccc3c21 (stereo unspecified) | 20.2 µM (inactive) | > 10 µM (inactive) | 16.7 µM (inactive) |  | 13.3 µM (inactive) | 20.4 µM (inactive) | 14.3 µM (inactive) | 26.6 µM (inactive) | 24 µM (inactive) |
| CCN(CC)C(=O)c1c(N2CCOCC2)cc(N(CC)CC)oc1=O | > 100 µM (inactive) | > 100 µM (inactive) | > 100 µM (inactive) | > 100 µM (inactive) |  | > 100 µM (inactive) | > 100 µM (inactive) | > 100 µM (inactive) | > 100 µM (inactive) |
| COc1ccc(N2C(=O)c3c(c4[nH]c5ccc(OC)cc5c4c4ccc(C(C)(C)C)cc34)C2=O)cc1 | > 100 µM (inactive) | > 100 µM (inactive) | > 100 µM (inactive) |  |  | > 100 µM (inactive) | > 100 µM (inactive) | > 100 µM (inactive) | > 100 µM (inactive) |
| CC1=C(C(=O)Nc2cc(=O)n(C)c(=O)n2C)C(c2ccc([N+](=O)[O-])cc2)C(C(=O)Nc2cc(=O)n(C)c(=O)n2C)=C(C)N1 | 51.8 µM (inactive) |  | 8.97 µM (inactive) | > 100 µM (inactive) | > 100 µM (inactive) | > 100 µM (inactive) | 51.5 µM (inactive) | > 100 µM (inactive) | 90.8 µM (inactive) |
| COc1cc2c(c(OC(C)=O)c1OC(C)=O)-c1ccc(SC)c(=O)cc1C(NC(C)=O)CC2 (stereo unspecified) | 0.955 µM (active) | 1.41 µM (inactive) | 2.75 µM (inactive) | 1.85 µM (inactive) |  | 1.39 µM (inactive) | > 91 µM (inactive) | 0.48 µM (active) | 3.91 µM (inactive) |
| CCn1cc(C(=O)O)c(=O)c2cc(F)c(N3CCNCC3)nc21 [ENOXACIN] | > 100 µM (inactive) | > 100 µM (inactive) |  |  | > 100 µM (inactive) | 87.9 µM (inactive) | > 100 µM (inactive) | > 100 µM (inactive) | > 100 µM (inactive) |
| COC(=O)NN=C1C(C)(C)C(=NNC(=O)OC)C1(C)C | > 100 µM (inactive) | > 100 µM (inactive) | > 96.6 µM (inactive) | > 100 µM (inactive) | > 100 µM (inactive) | > 40.6 µM (inactive) | > 100 µM (inactive) | > 100 µM (inactive) | > 61.9 µM (inactive) |
| Clc1ccc(C[P+]2(c3ccccc3)CCCCC2)cc1.[O-][Cl+3]([O-])([O-])[O-] | 37.1 µM (inactive) | 57.5 µM (inactive) | 44 µM (inactive) | 54.6 µM (inactive) |  | 28.7 µM (inactive) | > 100 µM (inactive) | 52.4 µM (inactive) | > 100 µM (inactive) |
